Reference: patent US10662174B2, “BTK inhibitor” (Hubei Bio-Pharmaceutical Industrial Technological Institute …, priority 2015, dated 2020)
Where two headings read alike, the source gives them in different places.

Target: T1, BTK kinase (Homo sapiens, UniProt Q06187)
T1 construct: purchased Invitrogen PR5442A
Test: Assay of inhibition activity of BTK in vitro (HTRF kit, read on Envision)
Type: biochemical
Protocol: Assay of Inhibition Activity of BTK In Vitro
The inhibition of compounds on BTK kinase was evaluated by […] detected by Envision, using the IC50 value of the compounds as index.
BTK kinase: Invitrogen-PR5442A
HTRF Assay Kit: Cisbio-62TKOPEJ
Plate for compound preparation: Greiner-781280
Cisbio HTRF Kit: Cisbio-62TKOPEJ
Centrifuge: Eppendorf-5810R
Bravo: Agilent Technologies-Bravo
Gradient Dilution of Compounds: […]
The test compound was dissolved with DMSO to be of 1 mM as a stock solution. Such a stock solution was diluted with DMSO by 10-fold, thereby obtaining an initial solution in a concentration of […] which was added into wells at the second column in a plate. 20 μL DMSO was added to other wells using Bravo. Then, 10 μL of the initial solution was transferred from wells at the second column to wells at the third column, followed by mixing obtained solution in the wells at the third column, thereby obtain a first diluted solution in a concentration of 1/3 μM. Subsequently, 10 μL of the first diluted solution was further transferred from wells at the third column to wells at the fourth column, followed by mixing obtained solution in the wells at the fourth column, thereby obtain a second diluted solution in a concentration of 1/9 μM. Such a three-fold serial dilution was performed 10 times, with 11 solutions in series diluted concentrations and a final diluted solution in a concentration of 0.017 nM obtained.
All diluted solutions were further diluted by 25-fold with ultrapure water, thus obtain test solutions, which were equilibrated at r.t. for 30 min before use.
To 2.5 μL of test solution, which was pipetted into each well of Assay plate using Bravo, 5 μL kinase mixture was added using the multi-channel pipettor. The mixture was centrifuged at 1000 rpm for 20 s, followed by incubation at 23° C. for 30 min. The reaction was initiated by 2.5 μL ATP mixture which was pipetted into the wells by Multidrop.
The reaction mixture of BTK kinase (10 μL) included 1.0 nM BTK, 1 μM biotin-TK1 peptide and 20 μM ATP. The reaction buffer included 50 mM Hepes (pH7.5), 10 mM MgCl2 and 0.01 mM […]. The kinase mixture was reacted in incubator at 23° C. for 90 mim.
The reaction was stopped by adding 10 μL Detection Reagent to each well of Assay plate, and the plate was left in incubator at 23° C. for 1 h before read on Envision.
Data analysis: The IC50 values of compounds were calculated using Excel fit.

[1] = 1.0 nM BTK, 1 μM biotin-TK1 peptide, 20 μM ATP, 23° C., tested by Envision, read-out: BTK IC50

T1 sequence (Q06187 whole entry): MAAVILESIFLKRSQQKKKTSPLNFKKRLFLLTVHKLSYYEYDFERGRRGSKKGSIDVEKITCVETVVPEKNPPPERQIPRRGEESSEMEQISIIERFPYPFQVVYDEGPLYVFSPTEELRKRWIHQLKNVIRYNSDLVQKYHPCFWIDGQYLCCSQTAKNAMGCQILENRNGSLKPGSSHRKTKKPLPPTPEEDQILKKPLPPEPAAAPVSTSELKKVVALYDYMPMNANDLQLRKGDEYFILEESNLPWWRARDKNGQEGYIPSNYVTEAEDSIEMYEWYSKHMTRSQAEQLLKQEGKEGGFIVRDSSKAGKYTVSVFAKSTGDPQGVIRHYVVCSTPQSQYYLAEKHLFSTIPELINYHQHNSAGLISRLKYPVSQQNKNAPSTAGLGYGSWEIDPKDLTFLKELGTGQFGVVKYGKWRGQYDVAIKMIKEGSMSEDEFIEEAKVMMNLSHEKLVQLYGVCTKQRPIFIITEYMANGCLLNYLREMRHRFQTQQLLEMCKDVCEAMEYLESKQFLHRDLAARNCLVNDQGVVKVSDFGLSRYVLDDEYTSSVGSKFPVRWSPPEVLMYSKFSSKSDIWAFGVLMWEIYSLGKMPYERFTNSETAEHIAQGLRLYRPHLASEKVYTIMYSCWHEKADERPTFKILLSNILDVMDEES

| Compound | IC50 [1] [µM] | IC50 [µM] |
| --- | --- | --- |
| C=CC(=O)N1CCC[C@@H](n2nc(-c3ccc(Oc4ccccn4)cc3)c3c(N)n[nH]c(=O)c32)C1 [Example 32] | < 0.1 | – |
| C=CC(=O)N1CCC[C@@H](n2nc(-c3ccc(C(=O)N4CCCC4)cc3)c3c(N)n[nH]c(=O)c32)C1 [Example 66] | < 0.1 | – |
| C=CC(=O)N1CCCC(c2nc3cnc(Nc4ccc(OCCOC)cc4)nc3[nH]2)C1 (stereo not drawn) [Example 21] | 1 to 10 | – |
| C=CC(=O)N1CCC[C@@H]1Cn1nc(-c2ccc(Oc3ccccc3)cc2)c2c(N)n[nH]c(=O)c21 [Example 38] | < 0.1 | – |
| C=CC(=O)N1CCC[C@@H](n2nc(-c3ccc(OC4Cc5ccccc5C4)cc3)c3c(N)n[nH]c(=O)c32)C1 [Example 74] | < 0.1 | – |
| C=CC(=O)N[C@H]1CC[C@@H](n2nc(-c3ccc(OC4CC5CC5C4)cc3)c3c(N)n[nH]c(=O)c32)CC1 (stereo partly drawn) [Example 41] | < 0.1 | – |
| Cc1ccn2c(=O)c(-c3cccc(-c4cc(Nc5ccc(N6CCN(C)CC6)cn5)c(=O)n(C)c4)c3C)ccc2c1 [Example 10] | 1 to 10 | – |
| C=CC(=O)N1CC[C@@H](n2nc(-c3ccc(Oc4ccccc4)cc3)c3c(N)n[nH]c(=O)c32)C1 [Example 60] | < 0.1 | – |
| C=CC(=O)N1CCC[C@@H](n2nc(-c3ccc(C4OCCO4)cc3)c3c(N)n[nH]c(=O)c32)C1 [Example 49] | < 0.1 | – |
| CN(C)C/C=C/C(=O)N[C@H]1CC[C@@H](n2nc(-c3ccc(Oc4ccccc4)cc3)c3c(N)n[nH]c(=O)c32)CC1 [Example 59] | < 0.1 | – |
| C=CC(=O)N1CCC[C@@H](Nc2cc3ncc(-c4ccc(Oc5ccccc5)cc4)c(=O)n3cn2)C1 [Example 17] | 1 to 10 | – |
| C=CC(=O)N1CCCC(n2nc(-c3ccc(Oc4ccccc4)nc3)c3c(N)n[nH]c(=O)c32)C1 (stereo not drawn) [Example 72] | < 0.1 | – |
| C=CC(=O)N1CCC[C@@H](n2nc(-c3ccc(OC4CCCCC4)cc3)c3c(N)n[nH]c(=O)c32)C1 [Example 80] | < 0.1 | – |
| CN(C)/C=C/CC(=O)N1CCCC(n2nc(-c3ccc(Oc4ccccc4)cc3)c3c(N)n[nH]c(=O)c32)C1 (stereo not drawn) [Example 84] | < 0.1 | – |
| C=CC(=O)N1CCC[C@@H](n2nc(-c3ccc4c(cnn4-c4ccccc4)c3)c3c(N)n[nH]c(=O)c32)C1 [Example 47] | 1 to 10 | – |
| C=CC(=O)Nc1cccc(-n2cnc3cnc(Nc4ccc(Oc5ccccc5)cc4)nc32)c1 [Example 29] | 1 to 10 | – |
| C=CS(=O)(=O)N[C@H]1CC[C@@H](n2nc(-c3ccc(Oc4ccccc4)cc3)c3c(N)n[nH]c(=O)c32)CC1 [Example 58] | < 0.1 | – |
| CN1CCN(C)[C@H](c2ccc(Nc3nc(-c4ccc5c(c4)c(C(=O)c4ccc(C6CC6)cc4F)cn5C)cn(C)c3=O)cc2)C1=O [Example 9] | – | 1 to 10 |
| C=CC(=O)N1CCC[C@@H](Nc2ncnc3[nH]cc(-c4ccccc4)c(=O)c23)C1 [Example 8] | 1 to 10 | – |
| C=CC(=O)Nc1cccc(-n2cnc3cnc(Nc4ccc(OCCOC)cc4)nc32)c1 [Example 24] | 1 to 10 | – |
| C=CC(=O)N1CCCC(n2nc(-c3ccc(Oc4ccccc4)cc3)c3cc4c(N)noc4cc32)C1 (stereo not drawn) [Example 107] | 1 to 10 | – |

| Compound | IC50 [1] [µM] | IC50 [µM] |
| --- | --- | --- |
| C=CC(=O)N1CCC[C@@H](Nc2ncnc(N)c2C(=O)c2ccc(Oc3ccccc3)cc2)C1 [Example 1] | 0.1 to 1 | – |
| Nc1n[nH]c(=O)c2c1c(-c1ccc(Oc3ccccc3)cc1)nn2[C@@H]1CCCN(C(=O)/C=C/CN2CCOCC2)C1 [Example 36] | < 0.1 | – |
| C=CC(=O)N1CCC[C@@H](Nc2ncnc(N)c2C(=O)c2ccc(Oc3ccccc3)cc2C)C1 [Example 25] | 0.1 to 1 | – |
| C=CC(=O)N1CCCC(n2nc(-c3ccc(Oc4ccccc4)cc3)c3c(N)nn(C4CC4)c(=O)c32)C1 (stereo not drawn) [Example 52] | < 0.1 | – |
| C=CC(=O)N1CCC[C@@H](n2nc(-c3ccc(-n4cc5ccccc5n4)cc3)c3c(N)n[nH]c(=O)c32)C1 [Example 48] | < 0.1 | – |
| C=CC(=O)N1CCC[C@@H](n2nc(-c3ccc(Oc4ccc(F)cn4)cc3)c3c(N)n[nH]c(=O)c32)C1 [Example 44] | < 0.1 | – |
| C=CC(=O)N1CCCC(n2nc(-c3ccc(Oc4cccc(C)c4)cc3)c3c(N)n[nH]c(=O)c32)C1 (stereo not drawn) [Example 67] | 1 to 10 | – |
| C=CC(=O)N[C@H]1CC[C@@H](n2nc(-c3ccc(Oc4ccccc4)cc3)c3c(N)n[nH]c(=O)c32)CC1 [Example 57] | < 0.1 | – |
| CN(C)C/C=C/C(=O)N1CCC[C@@H](n2nc(-c3ccc(OC4Cc5ccccc5C4)cc3)c3c(N)n[nH]c(=O)c32)C1 [Example 75] | < 0.1 | – |
| C=CC(=O)N1CCC[C@@H](n2nc(-c3ccc(-c4nc5ccccc5o4)cc3)c3c(N)n[nH]c(=O)c32)C1 [Example 88] | < 0.1 | – |
| CN(C)C/C=C/C(=O)N(C)CCn1nc(-c2ccc(Oc3ccccc3)cc2)c2c(N)n[nH]c(=O)c21 [Example 34] | < 0.1 | – |
| C=CC(=O)Nc1cccc(-n2nc3c(=O)[nH]nc(N)c3c2-c2ccc(Oc3ccccc3)cc2)c1 [Example 69] | < 0.1 | – |
| C=CC(=O)N1CCC[C@@H](Nc2ncnc(N)c2C(=O)c2ccc(N(C)c3ccccc3)cc2)C1 [Example 3] | 1 to 10 | – |
| Cc1c(-c2cc(Nc3ccc(N4CCN(C)CC4)cn3)c(=O)n(C)c2)cccc1-c1ccc(-c2ccccc2)n(C)c1=O [Example 7] | 1 to 10 | – |
| N#CC(=CC1CC1)C(=O)N1CCC[C@@H](n2nc(-c3ccc(Oc4ccccc4)cc3)c3c(N)n[nH]c(=O)c32)C1 [Example 76] | < 0.1 | – |
| C=CC(=O)N1CCC[C@@H](n2nc(-c3ccc(Oc4cc(C)ccn4)cc3)c3c(N)n[nH]c(=O)c32)C1 [Example 89] | < 0.1 | – |
| C=CC(=O)N1CCC[C@@H](Nc2ncnc(N)c2C(=O)c2ccc(Nc3ccccc3)cc2)C1 [Example 4] | 1 to 10 | – |
| C=CC(=O)N1CCCC(n2nc(-c3ccc(Oc4ccccc4C)cc3)c3c(N)n[nH]c(=O)c32)C1 (stereo not drawn) [Example 54] | < 0.1 | – |
| Cc1c(-c2cc(Nc3ccc(C4C(=O)NCCN4C)cc3)c(=O)n(C)c2)cccc1-c1ccc(-c2ccccc2)n(C)c1=O (stereo not drawn) [Example 12] | 1 to 10 | – |
| C=CC(=O)N1CCCC(n2nc(-c3ccc(Oc4ccc(C)cc4)cc3)c3c(N)n[nH]c(=O)c32)C1 (stereo not drawn) [Example 55] | < 0.1 | – |
| C=CC(=O)N1CCC[C@@H](n2nc(-c3ccc(Oc4ccccc4)cc3)c3c(N)n[nH]c(=O)c32)C1 [Example 28] | < 0.1 | – |
